# Measurements reported in patent US4479942A, “Tetrahydrofurnancarboxylic acid derivatives, processes for preparation thereof and pharmaceutical compositions thereof” (Fujisawa Pharmaceutical Co., Ltd., priority 1981, dated 1984).
# Columns and labels:
# Candida albicans OUT6004 = assay: Antimicrobial activity test (in vitro), minimal inhibitory concentration against Candida, pulp assay method; assay type: cell-based; conditions: malt agar
# Description: Antimicrobial activity test (in vitro):
# Minimal inhibitory concentration (MIC) against Candida: (Candida albicans OUT6004)
# Method: Pulp assay method
# Candida albicans FP-618 = assay: Minimal inhibitory concentration against Candida albicans, agar dilution method (FP-618); assay type: cell-based; conditions: FP618, malt agar
# Description: (§1) Antimicrobial activities of the compound in Example 98 [1-(6-amino-9H-purin-9-yl)-1,3-dideoxy-3-(O-methyl-L-tyrosylamino)-β- D-ribofuranuronic acid dihydrochloride monohydrate] against some species of Candida.
# (§2) Minimal inhibitory concentration (MIC) against Candida albicans:
# (§3) Method: Agar dilution method
# Candida albicans FP-622 = assay: Minimal inhibitory concentration against Candida albicans, agar dilution method (FP-622); assay type: cell-based; conditions: FP622, malt agar
# Description: as §1, §2, §3
# Candida albicans FP-633 [1] = assay: Minimal inhibitory concentration against Candida albicans, agar dilution method (FP-633); assay type: cell-based; conditions: FP633, malt agar
# Description: as §1, §2, §3
# [2] = Solubilities to various solvents
# Candida albicans FP-614 = assay: Minimal inhibitory concentration against Candida albicans, agar dilution method (FP-614); assay type: cell-based; conditions: FP614, malt agar
# Description: as §1, §2, §3
# Candida albicans FP-620 = assay: Minimal inhibitory concentration against Candida albicans, agar dilution method (FP-620); assay type: cell-based; conditions: FP620, malt agar
# Description: as §1, §2, §3
# Candida albicans FP-633 [3] = assay: Protective efficacy in experimental infection in mice; assay type: in vivo, mice (ddY-strains); conditions: one hour after i.v. infection, one week after infection
# Description: Protective efficacy in experimental infection in mice:
# In determining the protective efficacy against experimental infections of Candida in mice, the compound in Example 98 [1-(6-amino-9H-purin-9-yl)-1,3-dideoxy-3-(O-methyl-L-tyrosylamino)-β- D-ribofuranuronic acid dihydrochloride monohydrate] was suspended and diluted in sterile water to provide three concentrations of the drug for testing ddY-strains of mice aged 5 weeks and averaging 20 g in weight. Mice were used in groups of 5 mice each. One hour after the intravenous injection of 3.0×10^6 of Candida albicans FP-633 cells to each mouse, the drug solutions were administered subcutaneously or orally at the level mentioned below respectively.
# One week after the infection, the test was considered complete and survival records of that day were made.
# [4] = Toxicity, intraperitoneal administration into mice; assay type: in vivo; conditions: more than 1,000 mg/kg
# Candida albicans FP-616 = assay: Minimal inhibitory concentration against Candida albicans, agar dilution method (FP-616); assay type: cell-based; conditions: FP616, malt agar
# Description: as §1, §2, §3
smiles,measurement,setting,value
"Nc1ncnc2c1ncn2[C@@H]1O[C@H](C(=O)O)[C@@H](NC(=O)C(N)Cc2ccc([N+](=O)[O-])cc2)[C@H]1O (mixture of isomers) [Example 73, 1-(6-Amino-9H-purin-9-yl)-1,3-dideoxy-3-[β-(4-nitrophenyl)-D,L-alanylamino]-β-D-ribofuranuronic acid]",MIC,Candida albicans OUT6004,31 µg/mL
"Nc1ncnc2c1ncn2[C@@H]1O[C@H](C(=O)O)[C@@H](NC(=O)[C@@H](N)Cc2ccccc2)[C@H]1O [Example 39, 1-(6-amino-9H-purin-9-yl)-1,3-dideoxy-3-(L-phenylalanylamino)-β-D-ribofuranuronic acid]",MIC,Candida albicans OUT6004,31 µg/mL
"COc1ccc(C[C@H](N)C(=O)N[C@H]2[C@@H](O)[C@H](n3cnc4c(N)ncnc43)O[C@@H]2C(=O)NCC(=O)O)cc1 [Example 55, N-Carboxymethyl-1-(6-amino-9H-purin-9-yl)-1,3-dideoxy-3-(O-methyl-L-tyrosylamino)-β-D-ribofuranuronamide]",MIC,Candida albicans OUT6004,31 µg/mL
"COc1ccc(C[C@H](N)C(=O)N[C@H]2[C@@H](O)[C@H](n3cnc4c(N)ncnc43)O[C@@H]2C(=O)O)cc1.Cl.Cl.O [Example 98, 1-(6-Amino-9H-purin-9-yl)-1,3-dideoxy-3-(O-methyl-L-tyrosylamino)-β-D-ribofuranuronic acid dihydrochloride monohydrate]",MIC,Candida albicans FP-618,0.8 µg/mL
same,MIC,Candida albicans FP-622,3.1 µg/mL
same,MIC,Candida albicans FP-633 [1],1.6 µg/mL
same,MIC,Candida albicans OUT6004,16 µg/mL
same,Solubility,[2]; acetone,Insoluble
same,Solubility,[2]; chloroform,Insoluble
same,Solubility,[2]; ethyl acetate,Insoluble
same,Solubility,[2]; methanol,Slightly soluble
same,Solubility,[2]; water,Slightly soluble
same,MIC,Candida albicans FP-614,0.8 µg/mL
same,MIC,Candida albicans FP-620,0.2 µg/mL
same,Survival/infected,"Candida albicans FP-633 [3]; oral, 10 mg/kg",1/5
same,Survival/infected,"Candida albicans FP-633 [3]; oral, 30 mg/kg",3/5
same,Survival/infected,"Candida albicans FP-633 [3]; subcutaneous, 5 mg/kg",1/5
same,Survival/infected,"Candida albicans FP-633 [3]; subcutaneous, 15 mg/kg",4/5
same,Toxic symptom,[4],did not result in any toxic symtom
same,MIC,Candida albicans FP-616,0.2 µg/mL
